Assay results as given in patent EP0923551B1, “4-AMINOETHOXY INDOLONE DERIVATIVES” (AMERICAN HOME PRODUCTS CORPORATION, priority 1996, dated 1998).

Target: dopamine autoreceptor (Rattus norvegicus, UniProt P61169)
Test: Affinity for the dopamine autoreceptor, 3H-quinpirole binding in homogenized rat striatal brain tissue
Conditions: for IC50: 3H-quinpirole, homogenized rat striatal brain tissue, read-out: IC50 (nM) D2 Quin.; for Ratio: ratio of IC50 D2 Spiper to IC50 D2 Quin. (LowAg/HighAg, predicts intrinsic activity)

Sequence of dopamine autoreceptor (P61169 whole entry): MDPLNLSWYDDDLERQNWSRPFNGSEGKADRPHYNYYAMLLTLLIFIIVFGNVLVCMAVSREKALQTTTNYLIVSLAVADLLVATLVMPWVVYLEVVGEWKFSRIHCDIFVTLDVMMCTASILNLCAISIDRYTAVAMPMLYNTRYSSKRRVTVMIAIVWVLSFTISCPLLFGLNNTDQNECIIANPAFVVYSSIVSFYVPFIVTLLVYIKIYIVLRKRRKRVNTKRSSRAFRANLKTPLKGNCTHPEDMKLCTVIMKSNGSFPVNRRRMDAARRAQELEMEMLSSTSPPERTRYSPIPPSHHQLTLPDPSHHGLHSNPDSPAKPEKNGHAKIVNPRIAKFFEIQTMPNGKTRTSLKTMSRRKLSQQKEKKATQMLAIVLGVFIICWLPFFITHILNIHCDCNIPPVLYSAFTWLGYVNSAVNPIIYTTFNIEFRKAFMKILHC

IC50	Ratio	SMILES
0.41 nM	354	O=C1Cc2c(cccc2OCCNCc2ccccc2)N1 [Example 1, 4-(2-Benzylaminoethoxy)-1,3-dihydro-indol-2-one]
4.31 nM	213	CNCCOc1cccc2c1CC(=O)N2 [Example 2, 4-(2-Methylamino-ethoxy)-1,3-dihydro-indol-2-one]
13.9 nM	246	NCCOc1cccc2c1CC(=O)N2 [Example 3, 4-(2-Amino-ethoxy)-1,3-dihydro-indol-2-one]
2.54 nM	69	O=C1Cc2c(OCCNCc3ccc(F)cc3)ccc(Cl)c2N1 [Example 4]
2.81 nM	19	O=C1Cc2c(OCCNCc3ccc(Cl)cc3)ccc(Cl)c2N1 [Example 5]
1.1 nM	52	Cc1ccc(CNCCOc2ccc(Cl)c3c2CC(=O)N3)cc1 [Example 6]
3.68 nM	63	CN(CCOc1ccc(Cl)c2c1CC(=O)N2)Cc1ccccc1 [Example 7, 4-[2-(N-Benzyl-N-methyl-amino)-ethoxy]-7-chloro-1,3-dihydro-indol-2-one]
1.89 nM	76	CCCCNCCOc1ccc(Cl)c2c1CC(=O)N2 [Example 8, 4-(2-Butylamino-ethoxy)-7-chloro-1,3-dihydro-indol-2-one]
1.31 nM	62	O=C1Cc2c(OCCN3CCc4ccccc4C3)ccc(Cl)c2N1 [Example 9, 7-Chloro-4-[2-(3,4-dihydro-1H-isoquinolin-2-yl)-ethoxy]-1,3-dihydro-indol-2-one]
0.55 nM		O=C1Cc2c(OCCN3Cc4ccccc4C3)ccc(Cl)c2N1 [Example 10, 7-Chloro-4-[2-(1,3-dihydro-isoindol-2-yl)-ethoxy]-1,3-dihydro-indol-2-one]
41.1 nM		O=C1Cc2c(OCCNCc3ccc(-c4ccccc4)cc3)ccc(Cl)c2N1 [Example 11, 4-{2-[(Biphenyl-4-ylmethyl)-amino]-ethoxy}-7-chloro-1,3-dihydro-indol-2-one]
0.45 nM	55	O=C1Cc2c(cccc2OCCNCCCCc2ccccc2)N1 [Example 13]
0.82 nM	44	O=C1Cc2c(OCCNCc3ccccc3)ccc(Cl)c2N1 [Example 14, 4-(2-Benzylamino-ethoxy)-7-chloro-1,3-dihydro-indol-2-one]
0.91 nM	76	O=C1Cc2c(OCCNCc3ccccc3)ccc(F)c2N1 [Example 15, 4-(2-Benzylamino-ethoxy)-7-fluoro-1,3-dihydro-indol-2-one]
1.58 nM	63	O=C1Cc2c(OCCNCC3CCCCC3)ccc(F)c2N1 [Example 16, 4-[2-(Cyclohexylmethyl-amino)-ethoxy)-7-fluoro-1,3-dihydro-indol-2-one]
0.3 nM		O=C1Cc2c(OCCNCCCc3c[nH]c4ccccc34)ccc(F)c2N1 [Example 18, 4-{2-[3-(1H-Indol-yl)-propylamino]-ethoxy}-7-fluoro-1,3-dihydro-indol-2-one]
3.57 nM		O=C1Cc2c(OCCN3Cc4ccccc4C3)ccc(F)c2N1 [Example 19, 4-[2-(1,3-Dihydro-isoindol-2-yl)-ethoxy]-7-fluoro-1,3-dihydro-indol-2-one]
11.1 nM		O=C1Cc2c(OCCNCc3ccc(-c4ccccc4)cc3)ccc(F)c2N1 [Example 20, 4-{2-[(Biphenyl-4-ylmethyl)-amino]-ethoxy}-7-fluoro-1,3-dihydro-indol-2-one]
1.27 nM		O=C1Cc2c(OCCNCc3ccc4ccccc4c3)ccc(F)c2N1 [Example 21, 7-Fluoro-4-{2-[(napthalen-2-ylmethyl)-aminol]-ethoxy}-1,3-dihydro-indol-2-one]
1.84 nM		O=C1Cc2c(OCCN3CCc4ccccc4C3)ccc(F)c2N1 [Example 22, 4-[2-(3,4-Dihydro-1H-isoquinolin-2-yl)-ethoxy]-7-fluoro-1,3-dihydro-indol-2-one]
1.52 nM	424	CN(CCOc1cccc2c1CC(=O)N2)Cc1ccccc1 [Example 25, 4-[2-(Benzyl-methyl-amino)-ethoxy]-1,3-dihydro-indol-2-one]
31.2 nM	619	Cc1cccc(CN(CCOc2cccc3c2CC(=O)N3)Cc2cccc(C)c2)c1 [Example 26, 4-{2-[Bis-(3-methyl-benzyl)-amino]-ethoxy}-1,3-dihydro-indol-2-one]
6.22 nM	57	CN(CCCC(=O)c1ccc(F)cc1)CCOc1cccc2c1CC(=O)N2 [Example 27, 4-(2-{[4-(4-Fluoro-phenyl)-4-oxo-butyl]-methyl-amino}-ethoxy)-1,3-dihydro-indol-2-one]
